pIC50: −log10 of the molar value.
target: Cholinesterase (Homo sapiens, UniProt P06276); assay: Inhibition of human serum butyrylcholinesterase using butyrylthiocholine iodide as substrate preincubated for 20 mins followed by substrate addition by Ellman's method; details: not given
Sequence (P06276 whole entry): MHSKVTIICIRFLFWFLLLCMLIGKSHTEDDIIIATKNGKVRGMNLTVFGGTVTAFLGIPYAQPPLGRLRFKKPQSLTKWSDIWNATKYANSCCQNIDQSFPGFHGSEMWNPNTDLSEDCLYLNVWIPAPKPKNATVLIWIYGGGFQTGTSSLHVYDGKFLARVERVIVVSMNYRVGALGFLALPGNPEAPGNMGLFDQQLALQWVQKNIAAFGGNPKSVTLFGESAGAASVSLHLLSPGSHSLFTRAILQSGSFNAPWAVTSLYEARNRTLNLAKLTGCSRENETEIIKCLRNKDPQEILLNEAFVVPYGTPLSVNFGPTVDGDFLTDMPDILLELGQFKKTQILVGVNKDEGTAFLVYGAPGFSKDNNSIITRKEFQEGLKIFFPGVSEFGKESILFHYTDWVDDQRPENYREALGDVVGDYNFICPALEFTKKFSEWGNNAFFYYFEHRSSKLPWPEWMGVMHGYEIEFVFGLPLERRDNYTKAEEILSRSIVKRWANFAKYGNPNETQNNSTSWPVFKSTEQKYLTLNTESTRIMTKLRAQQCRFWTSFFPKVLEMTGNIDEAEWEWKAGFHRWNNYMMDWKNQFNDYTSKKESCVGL

Compound	pIC50
c1ccc2c(NCCSSCCNc3c4c(nc5ccccc35)CCCC4)c3c(nc2c1)CCCC3	8.25

species: Homo sapiens; assay: Selectivity index, ratio of IC50 for human plasma butyrylcholinesterase to IC50 for human erythrocyte acetylcholinesterase; details: not given

Compound	Selectivity Index
COc1cc2oc(-c3ccc(NCCNc4c5c(nc6cc(Cl)ccc46)CCCC5)cc3)cc(=O)c2c(OC)c1OC	742
COc1cc2oc(-c3ccc(NCCCCNc4c5c(nc6cc(Cl)ccc46)CCCC5)cc3)cc(=O)c2c(OC)c1OC	1690
COc1cc2oc(-c3ccc(NCCCNc4c5c(nc6cc(Cl)ccc46)CCCC5)cc3)cc(=O)c2c(OC)c1OC	92

target: T1, Acetylcholinesterase (Rattus norvegicus, UniProt P37136); assay: Antagonist activity at Acetylcholinesterase in Sprague-Dawley rat phrenic nerve-hemidiaphragm assessed as reversal of d-tubocurarine induced neuromuscular blockade after 15 mins; details: read-out: I50
T1 sequence (P37136 whole entry): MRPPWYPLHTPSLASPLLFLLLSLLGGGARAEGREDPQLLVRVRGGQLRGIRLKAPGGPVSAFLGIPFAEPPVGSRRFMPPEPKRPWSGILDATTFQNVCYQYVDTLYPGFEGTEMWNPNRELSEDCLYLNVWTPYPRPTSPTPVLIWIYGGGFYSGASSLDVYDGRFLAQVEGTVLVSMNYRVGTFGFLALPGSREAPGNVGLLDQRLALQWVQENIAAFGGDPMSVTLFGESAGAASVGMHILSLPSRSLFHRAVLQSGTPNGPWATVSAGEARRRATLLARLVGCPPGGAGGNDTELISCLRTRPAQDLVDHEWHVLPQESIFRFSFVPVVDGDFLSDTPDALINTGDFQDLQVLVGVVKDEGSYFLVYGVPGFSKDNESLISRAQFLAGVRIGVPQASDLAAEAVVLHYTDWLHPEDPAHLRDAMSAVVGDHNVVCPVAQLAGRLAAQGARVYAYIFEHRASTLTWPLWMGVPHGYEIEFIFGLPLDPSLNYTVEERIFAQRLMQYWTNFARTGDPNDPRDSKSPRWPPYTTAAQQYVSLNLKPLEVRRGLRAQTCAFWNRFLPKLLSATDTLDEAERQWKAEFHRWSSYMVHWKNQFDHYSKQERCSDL

Compound	pIC50
CCC1=CC2Cc3nc4ccccc4c(N)c3C(C1)C2 (racemic)	7.08
CC1=CC2Cc3nc4ccccc4c(N)c3C(C1)C2 (racemic)	6.75
CC1=C[C@@H]2Cc3nc4cc(F)ccc4c(N)c3[C@H](C1)C2	7.31
CC1=CC2Cc3nc4cc(Cl)ccc4c(N)c3C(C1)C2 (single isomer, unassigned; (-)) [HUPRINE Y]	7.50
CC1=CC2Cc3nc4cc(Cl)ccc4c(N)c3C(C1)C2 (racemic) [HUPRINE Y]	7.07

target: Acetylcholinesterase (Homo sapiens, UniProt P22303); assay: Potency index, ratio of tacrine IC50 for human erythrocyte acetylcholinesterase to compound IC50 for homogenate acetylcholinesterase; details: not given
Sequence (P22303 whole entry): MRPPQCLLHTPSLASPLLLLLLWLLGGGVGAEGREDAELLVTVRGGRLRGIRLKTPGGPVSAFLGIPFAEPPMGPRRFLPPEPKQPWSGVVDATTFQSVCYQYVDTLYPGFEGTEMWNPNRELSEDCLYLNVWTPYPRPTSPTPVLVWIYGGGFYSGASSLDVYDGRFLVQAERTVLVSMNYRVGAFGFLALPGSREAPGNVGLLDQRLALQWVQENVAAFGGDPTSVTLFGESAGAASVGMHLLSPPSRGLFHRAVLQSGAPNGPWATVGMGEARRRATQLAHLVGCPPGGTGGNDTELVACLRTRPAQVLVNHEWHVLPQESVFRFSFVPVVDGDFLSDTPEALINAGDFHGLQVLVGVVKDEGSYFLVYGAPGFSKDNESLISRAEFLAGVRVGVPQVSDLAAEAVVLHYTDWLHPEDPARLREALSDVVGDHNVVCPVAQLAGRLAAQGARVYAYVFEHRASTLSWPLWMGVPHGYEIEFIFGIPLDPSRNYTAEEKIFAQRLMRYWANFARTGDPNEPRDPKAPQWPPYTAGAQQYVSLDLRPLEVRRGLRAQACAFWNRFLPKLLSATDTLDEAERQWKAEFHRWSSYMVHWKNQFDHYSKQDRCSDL

Compound	Ratio IC50
O=C(CCCCCCCNc1c2c(nc3ccccc13)CCCC2)NCCc1c[nH]c2ccccc12	70 to 43000
COc1ccc2[nH]cc(CCNC(=O)CCCCCCNc3c4c(nc5cc(Cl)cc(Cl)c35)CCCC4)c2c1	70 to 43000
COc1ccc2[nH]cc(CCNC(=O)CCCCNc3c4c(nc5ccccc35)CCCC4)c2c1	70 to 43000
O=C(CCCCCNc1c2c(nc3cc(Cl)ccc13)CCCC2)NCCc1c[nH]c2ccccc12	70 to 43000
O=C(CCCCCCNc1c2c(nc3cc(Cl)ccc13)CCCC2)NCCc1c[nH]c2ccccc12	70 to 43000
O=C(CCCCCNc1c2c(nc3cc(Cl)cc(Cl)c13)CCCC2)NCCc1c[nH]c2ccccc12	70 to 43000
S=C(CCCCCNc1c2c(nc3ccccc13)CCCC2)NCCc1c[nH]c2ccccc12	70 to 43000
O=C(CCCCCCCNc1c2c(nc3cc(Cl)cc(Cl)c13)CCCC2)NCCc1c[nH]c2ccccc12	70 to 43000
COc1ccc2[nH]cc(CCNC(=O)CCCCCNc3c4c(nc5cc(Cl)ccc35)CCCC4)c2c1	70 to 43000
O=C(CCCCCNc1c2c(nc3ccccc13)CCCC2)NCCc1c[nH]c2ccccc12	70 to 43000
COc1ccc2[nH]cc(CCNC(=O)CCCCCNc3c4c(nc5ccccc35)CCCC4)c2c1	70 to 43000
S=C(CCCCCCCNc1c2c(nc3ccccc13)CCCC2)NCCc1c[nH]c2ccccc12	70 to 43000
COc1ccc2[nH]cc(CCNC(=O)CCCCCNc3c4c(nc5cccc(Cl)c35)CCCC4)c2c1	70 to 43000
O=C(CCCCCCCNc1c2c(nc3ccccc13)CCCC2)NCCc1c[nH]c2ccc(O)cc12	70 to 43000
O=C(CCCCCCNc1c2c(nc3ccccc13)CCCC2)NCCc1c[nH]c2ccccc12	70 to 43000
COc1ccc2[nH]cc(CCNC(=O)CCCCCCCNc3c4c(nc5ccccc35)CCCC4)c2c1	70 to 43000
O=C(CCCCCNc1c2c(nc3ccc(F)cc13)CCCC2)NCCc1c[nH]c2ccccc12	70 to 43000
O=C(CCCCNc1c2c(nc3ccccc13)CCCC2)NCCc1c[nH]c2ccccc12	70 to 43000
O=C(CCCCCNc1c2c(nc3ccccc13)CCCC2)NCCc1c[nH]c2ccc(O)cc12	70 to 43000
COc1ccc2[nH]cc(CCNC(=O)CCCCCNc3c4c(nc5cc(Cl)cc(Cl)c35)CCCC4)c2c1	70 to 43000
O=C(CCCCCNc1c2c(nc3c(Cl)cccc13)CCCC2)NCCc1c[nH]c2ccccc12	70 to 43000
COc1ccc2[nH]cc(CCNC(=O)CCCCCCNc3c4c(nc5ccccc35)CCCC4)c2c1	70 to 43000
O=C(CCCCCCNc1c2c(nc3cc(Cl)cc(Cl)c13)CCCC2)NCCc1c[nH]c2ccccc12	70 to 43000

test system: not listed separately; assay: Antioxidant activity of compound by ORAC-FL assay relative to trolox; type: functional; details: not given

Compound	Ratio
COc1ccc2[nH]cc(CCNC(=O)CN(C(=O)/C=C/c3ccc(O)c(OC)c3)C3CCN(Cc4ccccc4)CC3)c2c1	4.8 to 8.71
COc1cc(/C=C/C(=O)N(CC(=O)NCc2ccccc2)C2CCN(Cc3ccccc3)CC2)ccc1O	4.8 to 8.71
COc1cc(/C=C/C(=O)N(CCCC2CCN(Cc3ccccc3)CC2)CC(=O)NCc2ccccc2)ccc1O	4.8 to 8.71
COc1cc(/C=C/C(=O)N(CCC2CCN(Cc3ccccc3)CC2)CC(=O)Nc2c(C)cccc2Cl)ccc1O	4.8 to 8.71
COc1cc(/C=C/C(=O)N(CCC2CCN(Cc3ccccc3)CC2)CC(=O)NCc2ccccc2)ccc1O	4.8 to 8.71
COc1cc(/C=C/C(=O)N(CCC2CCN(Cc3ccccc3)CC2)CC(=O)Nc2ccc3ccccc3c2)ccc1O	4.8 to 8.71
COc1cc(/C=C/C(=O)N(CCCC2CCN(Cc3ccccc3)CC2)CC(=O)Nc2ccc3ccccc3c2)ccc1O	4.8 to 8.71
COc1cc(/C=C/C(=O)N(CCCC2CCN(Cc3ccccc3)CC2)CC(=O)Nc2c(C)cccc2Cl)ccc1O	4.8 to 8.71
COc1cc(/C=C/C(=O)N(CC(=O)Nc2ccc3ccccc3c2)C2CCN(Cc3ccccc3)CC2)ccc1O	4.8 to 8.71
COc1cc(/C=C/C(=O)N(CC(=O)Nc2c(C)cccc2Cl)C2CCN(Cc3ccccc3)CC2)ccc1O	4.8 to 8.71

target: T2, Acetylcholinesterase (Mus musculus, UniProt P21836); assay: Inhibition of mouse brain acetylcholinesterase by Ellman's method; details: not given
T2 sequence (P21836 whole entry): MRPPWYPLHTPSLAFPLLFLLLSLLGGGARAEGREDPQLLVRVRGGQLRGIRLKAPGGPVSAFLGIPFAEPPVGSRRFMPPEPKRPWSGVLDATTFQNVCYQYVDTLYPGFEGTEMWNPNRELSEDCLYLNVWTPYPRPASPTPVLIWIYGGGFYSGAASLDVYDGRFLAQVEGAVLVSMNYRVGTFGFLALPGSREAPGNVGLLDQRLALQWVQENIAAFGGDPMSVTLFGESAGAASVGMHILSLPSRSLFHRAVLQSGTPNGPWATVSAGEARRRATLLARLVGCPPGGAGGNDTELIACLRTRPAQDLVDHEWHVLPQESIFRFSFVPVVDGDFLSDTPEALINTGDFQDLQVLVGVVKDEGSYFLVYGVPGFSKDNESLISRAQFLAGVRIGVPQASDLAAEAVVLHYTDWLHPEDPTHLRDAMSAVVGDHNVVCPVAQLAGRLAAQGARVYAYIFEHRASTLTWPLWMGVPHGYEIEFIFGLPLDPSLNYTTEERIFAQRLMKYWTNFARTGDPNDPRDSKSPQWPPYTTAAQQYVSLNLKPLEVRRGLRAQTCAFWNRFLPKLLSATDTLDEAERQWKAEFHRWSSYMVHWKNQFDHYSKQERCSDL

Compound	pIC50
CN(C)C(=O)Oc1ccc2c(c1)C=CCN[C@@H]2CCOc1ccc([N+](=O)[O-])cc1	7.85
CN(C)C(=O)Oc1ccc([C@@H](N)CCOc2ccc([N+](=O)[O-])cc2)cc1	7.00
CNC(CCOc1ccc([N+](=O)[O-])cc1)c1ccc(OC(=O)N(C)C)cc1 (racemic)	6.90
CN[C@@H](CCOc1ccc([N+](=O)[O-])cc1)c1ccc(OC(=O)N(C)C)cc1	7.00
CN[C@H](CCOc1ccc([N+](=O)[O-])cc1)c1ccc(OC(=O)N(C)C)cc1	6.84

target: Sodium-dependent serotonin transporter (Rattus norvegicus, UniProt P31652); assay: Inhibition of rat synaptosome SERT assessed as reduction in [3H]5-HT uptake; details: not given
Sequence (P31652 whole entry): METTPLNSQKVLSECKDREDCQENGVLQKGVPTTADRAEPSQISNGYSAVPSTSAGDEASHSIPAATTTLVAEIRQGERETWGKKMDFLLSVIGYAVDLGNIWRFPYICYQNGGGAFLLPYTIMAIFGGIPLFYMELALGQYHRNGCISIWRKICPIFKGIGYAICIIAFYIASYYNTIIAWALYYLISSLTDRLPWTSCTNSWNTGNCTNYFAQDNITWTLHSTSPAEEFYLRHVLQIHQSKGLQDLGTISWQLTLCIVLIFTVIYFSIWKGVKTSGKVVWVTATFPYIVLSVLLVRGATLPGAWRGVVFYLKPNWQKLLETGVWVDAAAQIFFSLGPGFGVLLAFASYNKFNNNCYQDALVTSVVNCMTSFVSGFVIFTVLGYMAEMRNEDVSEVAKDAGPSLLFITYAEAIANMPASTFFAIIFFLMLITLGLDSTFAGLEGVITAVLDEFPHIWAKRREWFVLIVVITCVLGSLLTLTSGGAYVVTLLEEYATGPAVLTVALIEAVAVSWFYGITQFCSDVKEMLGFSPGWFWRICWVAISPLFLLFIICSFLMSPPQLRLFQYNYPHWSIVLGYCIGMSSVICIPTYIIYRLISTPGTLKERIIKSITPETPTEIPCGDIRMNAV

Compound	pIC50
CN(C)C(=O)Oc1ccc2c(c1)C=CCN[C@@H]2CCOc1ccc([N+](=O)[O-])cc1	8.22
CN(C)C(=O)Oc1ccc([C@@H](N)CCOc2ccc([N+](=O)[O-])cc2)cc1	7.38
CNC(CCOc1ccc([N+](=O)[O-])cc1)c1ccc(OC(=O)N(C)C)cc1 (racemic)	7.36
CN(C)C(=O)Oc1ccc2c(c1)C=CCN(C)[C@H]2CCOc1ccc([N+](=O)[O-])cc1	6.03
CN[C@@H](CCOc1ccc([N+](=O)[O-])cc1)c1ccc(OC(=O)N(C)C)cc1	7.38
CN[C@H](CCOc1ccc([N+](=O)[O-])cc1)c1ccc(OC(=O)N(C)C)cc1	6.87

target: Butyrylcholinesterase (Rattus norvegicus) (UniProt Q9JKC1); assay: Inhibition of rat serum butyrylcholinesterase using butyrylthiocholine iodide as substrate at 50 uM incubated for 15 mins by Ellman's method relative to control; details: not given
Sequence (Q9JKC1 as listed by the source): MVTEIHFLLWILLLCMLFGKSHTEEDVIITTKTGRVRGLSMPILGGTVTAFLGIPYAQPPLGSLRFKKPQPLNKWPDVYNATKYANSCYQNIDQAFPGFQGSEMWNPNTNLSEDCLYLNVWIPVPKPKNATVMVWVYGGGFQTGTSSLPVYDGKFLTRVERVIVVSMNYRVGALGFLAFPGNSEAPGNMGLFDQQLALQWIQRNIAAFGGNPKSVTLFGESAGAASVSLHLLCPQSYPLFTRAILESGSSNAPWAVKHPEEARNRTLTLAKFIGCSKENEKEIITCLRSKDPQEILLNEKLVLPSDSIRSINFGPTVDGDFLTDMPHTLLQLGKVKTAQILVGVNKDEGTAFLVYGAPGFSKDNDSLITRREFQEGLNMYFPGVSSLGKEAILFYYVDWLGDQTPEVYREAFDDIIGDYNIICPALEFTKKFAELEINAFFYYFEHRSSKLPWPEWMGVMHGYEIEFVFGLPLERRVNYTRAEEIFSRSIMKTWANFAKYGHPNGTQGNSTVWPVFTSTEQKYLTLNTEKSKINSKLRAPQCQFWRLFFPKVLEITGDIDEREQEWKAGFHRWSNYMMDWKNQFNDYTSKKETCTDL

Compound	inhibition [%]
CCN(CC)Cc1ccc(/C=C/c2cnc(C)c3c2COC(C)(C)O3)cc1O	8.9

target: Acetylcholinesterase (Electrophorus electricus, UniProt O42275); assay: Inhibition of electric eel AChE using acetylthiocholine iodide as substrate preincubated for 15 mins followed by substrate addition and measured at 1 min intervals by Ellman's method; details: not given
Sequence (O42275 whole entry): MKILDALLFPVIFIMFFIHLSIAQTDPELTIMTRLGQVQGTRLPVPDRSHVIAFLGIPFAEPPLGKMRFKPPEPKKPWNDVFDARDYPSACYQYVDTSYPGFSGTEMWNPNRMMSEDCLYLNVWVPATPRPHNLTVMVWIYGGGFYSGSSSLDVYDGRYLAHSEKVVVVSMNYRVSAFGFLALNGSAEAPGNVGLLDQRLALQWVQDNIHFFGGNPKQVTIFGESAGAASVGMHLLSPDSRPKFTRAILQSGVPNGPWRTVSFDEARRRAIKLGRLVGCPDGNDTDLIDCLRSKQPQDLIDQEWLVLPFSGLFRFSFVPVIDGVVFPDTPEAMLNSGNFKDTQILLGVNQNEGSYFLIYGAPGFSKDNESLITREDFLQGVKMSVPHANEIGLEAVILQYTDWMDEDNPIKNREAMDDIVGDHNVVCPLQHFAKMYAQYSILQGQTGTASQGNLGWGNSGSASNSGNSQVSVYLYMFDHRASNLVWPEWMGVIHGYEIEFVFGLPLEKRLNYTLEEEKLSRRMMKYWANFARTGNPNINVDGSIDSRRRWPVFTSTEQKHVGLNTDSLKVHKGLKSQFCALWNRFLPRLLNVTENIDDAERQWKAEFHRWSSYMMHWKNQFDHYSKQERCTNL

Compound	pIC50
O=C(/C=C/C(=O)Nc1ccc2c(c1)C(=O)c1cccc3ccnc-2c13)NCCc1c[nH]c2ccc(F)cc12	5.63
O=C(/C=C\C(=O)Nc1ccc2c(c1)C(=O)c1cccc3ccnc-2c13)NCCc1c[nH]c2ccc(F)cc12	4.83
COc1ccc2[nH]cc(CCNC(=O)/C=C\C(=O)Nc3ccc4c(c3)C(=O)c3cccc5ccnc-4c35)c2c1	5.21
Cc1ccc2[nH]cc(CCNC(=O)/C=C\C(=O)Nc3ccc4c(c3)C(=O)c3cccc5ccnc-4c35)c2c1	5.29

target: Acetylcholinesterase (Electrophorus electricus) (UniProt O42275); assay: Inhibition of electric eel AChE-induced amyloid beta 1 to 40 (unknown origin) aggregation at 100 uM incubated for 8 hrs by thioflavin-T fluorescence method relative to control; details: not given
Sequence (O42275 24-633 limits assumed): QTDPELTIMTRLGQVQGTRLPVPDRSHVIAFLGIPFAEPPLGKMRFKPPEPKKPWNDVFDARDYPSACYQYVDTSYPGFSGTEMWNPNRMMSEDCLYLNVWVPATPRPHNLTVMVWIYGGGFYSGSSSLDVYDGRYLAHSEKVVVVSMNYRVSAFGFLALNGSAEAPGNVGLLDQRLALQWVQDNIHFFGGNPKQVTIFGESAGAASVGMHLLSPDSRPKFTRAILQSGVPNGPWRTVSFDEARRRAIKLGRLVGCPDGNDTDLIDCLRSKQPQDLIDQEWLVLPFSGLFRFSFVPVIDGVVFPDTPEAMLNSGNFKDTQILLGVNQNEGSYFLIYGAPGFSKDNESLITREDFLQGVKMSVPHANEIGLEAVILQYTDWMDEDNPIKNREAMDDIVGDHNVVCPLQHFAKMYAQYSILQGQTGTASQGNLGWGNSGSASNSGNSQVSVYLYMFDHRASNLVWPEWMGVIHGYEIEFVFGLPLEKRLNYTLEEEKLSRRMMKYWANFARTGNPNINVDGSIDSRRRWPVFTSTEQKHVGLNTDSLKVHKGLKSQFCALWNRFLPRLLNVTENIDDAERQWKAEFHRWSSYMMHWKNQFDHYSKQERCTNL

Compound	inhibition [%]
O=C(/C=C/C(=O)Nc1ccc2c(c1)C(=O)c1cccc3ccnc-2c13)NCCc1c[nH]c2ccc(F)cc12	60.5
O=C(/C=C\C(=O)Nc1ccc2c(c1)C(=O)c1cccc3ccnc-2c13)NCCc1c[nH]c2ccc(F)cc12	32.5
COc1ccc2[nH]cc(CCNC(=O)/C=C\C(=O)Nc3ccc4c(c3)C(=O)c3cccc5ccnc-4c35)c2c1	50.4
Cc1ccc2[nH]cc(CCNC(=O)/C=C\C(=O)Nc3ccc4c(c3)C(=O)c3cccc5ccnc-4c35)c2c1	57.7

From ChEMBL document CHEMBL4342404, “Anti-cholinesterase hybrids as multi-target-directed ligands against Alzheimer's disease (1998-2018)” (Bioorg Med Chem, 2019)
